Values quoted from earlier work in patent US8524293B1, “Method for producing a red grape tea-like composition” (priority 2009, dated 2013).

Assays:
[1] = test system: flu; conditions: laboratory animals
[2] = test system: intestinal tumor formation; conditions: cancerous mouse

Row | Compound | risk of flu [1] | focal adhesion kinase activation [2] | intestinal tumor formation [2]
1 | O=c1c(O)c(-c2ccc(O)c(O)c2)oc2cc(O)cc(O)c12 [quercetin] | reduce the risk of flu | – | –
2 | catechin | – | suppressed focal adhesion kinase activation | inhibited intestinal tumor formation
